According to patent publication US20130236553A1, “Compositions and Methods for the Delivery of Therapeutics” (Board of Regents of the University of Nebraska, priority 2010, published 2013):

Columns and labels:
[1] = tested on: a variety of HIV strains and host cell types; conditions: read-out: EC50 levels for anti-HIV activity; cited from earlier work
[2] = Plasma concentration after low dose SC injection of nanoparticle or free drug; type: in vivo, Mice; conditions: 10 mg/kg SC; for concentration at 0.25 hr / concentration at 1 hr / concentration at 3 hr / concentration at 6 hr / concentration at 10 hr / concentration at 24 hr / concentration at 48 hr / concentration at 96 hr / concentration at 168 hr / concentration at 336 hr: mouse, plasma, subcutaneous
Method: Mice were also administered nanoparticles or free drug at only 10 mg/kg by SC injection.

[3] = cited from earlier work
[4] = cited from earlier work; remark: listed apart in the source
[5] = tested on: HIVADA; test: Antiretroviral activities of RTV (p24 staining, RT activity) in HIVADA infected MDM; type: cell-based, HIV-1; conditions: 12 hours treatment, HIV challenge day 1, read 10 days after infection
Method: Drug-treated MDMs were infected with HIVADA at a multiplicity of infection of 0.01 infectious viral particles/cell (Gendelman et al. (1988) J. Exp. Med., 167:1428-1441) on day 1 after RTV-NP treatment. Following viral infection, cells were cultured for 10 days with half media exchanges every other day. Media samples were collected 10 days after infection for measurement of progeny virion production as assayed by reverse transcriptase (RT) activity (Kalter et al. (1991) J. Immunol., 146:3396-3404). Parallel analyses for expression of HIV p24 antigen in infected cells were performed by immunostaining using p24 mouse monoclonal Ab (Dako [CA, USA]) on the same day as media sampling.
In a 96-well plate, media samples (10 μl) were mixed with 10 μl of a solution containing 100 mM Tris-HCl (pH 7.9), 300 mM KCl, 10 mM dithiothreitol, 0.1% nonyl phenoxylpolyethoxylethanol-40 (NP-40) and water. […] Following incubation, 50 μl of cold 10% TCA was added to each well; the wells were harvested onto glass fiber filters, and the filters were assessed for tritiated thymidine triphosphate incorporation by β-scintillation spectroscopy using a TopCount NX™ (PerkinElmer Inc. [MA, USA]) (Kalter et al. (1991) J. Immunol., 146:3396-3404). […]

Compound	EC50 [1] [nM]	concentration at 0.25 hr [2] [ng/mL]	concentration at 1 hr [2] [ng/mL]	concentration at 3 hr [2] [ng/mL]	concentration at 6 hr [2] [ng/mL]	concentration at 10 hr [2] [ng/mL]	concentration at 24 hr [2] [ng/mL]	concentration at 48 hr [2] [ng/mL]	concentration at 96 hr [2] [ng/mL]	concentration at 168 hr [2] [ng/mL]	concentration at 336 hr ([2]; 336 hr) [ng/mL]	solubility of free-base drug [3] [µg/mL]	therapeutic human plasma levels [4] [µg/mL]	minimum human therapeutic serum level ([4]; human serum) [ng/mL]	protection against HIV infection (p24 staining, multinucleated giant cells) [5]	Plasma concentration, 336 hr ([2]; 336 hr)
CC(C)(C)NC(=O)[C@@H]1CN(Cc2cccnc2)CCN1C[C@@H](O)C[C@@H](Cc1ccccc1)C(=O)N[C@H]1c2ccccc2C[C@H]1O [IDV, indinavir]	5 to 29															
COC(=O)N[C@H](C(=O)N[C@@H](Cc1ccccc1)[C@@H](O)CN(Cc1ccc(-c2ccccn2)cc1)NC(=O)[C@@H](NC(=O)OC)C(C)(C)C)C(C)(C)C [ATV, atazanavir]	2 to 5	1150	804	2060	2100	639	9.85	4.38	4.3	1.74	0	4000 to 5000	0.3 to 2.2	150		
CC(C)c1nc(CN(C)C(=O)N[C@H](C(=O)N[C@@H](Cc2ccccc2)C[C@H](O)[C@H](Cc2ccccc2)NC(=O)OCc2cncs2)C(C)C)cs1 [RTV, ritonavir]	35 to 200	1080	492	710	551	69.1	5.91	2.36	4.94	2.21	0		3.5 to 9.6		no protection against infection	
O=C1Nc2ccc(Cl)cc2[C@@](C#CC2CC2)(C(F)(F)F)O1 [EFV, efavirenz]	1.7 to 25	301	124	155	213	40	7.1	2.17	2.99	2.57		9	1.8 to 4.1			<LLOQ
